# Reference: patent US20020016299A1, “APOPTOSIS INDUCERS” (priority 1996, published 2002)
# *1 amine or outer side, *2 acyl side, *3 side chain or, on linkers, in order; H or OH if unused. Where a SMILES comes first, the peptide text is derived from it. Bridges are numbered along the chain shown (N, C = ends). Roman numbers before positions name the chains, in order. [ ]: non-standard residue; d: D form. Actinocin(9to1) = Cc1c2oc3c(C)ccc(C(=O)[*:1])c3nc-2c(C(=O)[*:2])c(N)c1=O; NMeV = CN[C@H](C(=O)O)C(C)C; Sar = CNCC(=O)O
# Tested on: HL-60 (ATCC CL-240)
# Experiment: Apoptosis inducing activity: microscope observation and living cell count of HL-60 culture
# Assay type: cell-based
# Conditions: HL-60 cells; for activity of suppressing the growth of cancer cells: method of Example 1-(4)
# Procedure: Apoptosis inducing activity of the above fraction B and the pure product mentioned in Example 1-(3) was measured as follows. Thus, 0.5 ml of aqueous solution of the fraction B or of said pure product was added to 2.5×10^5 cells/4.5 ml of HL-60 (ATCC CL-240) cultured in an RPMI 1640 medium containing 10% of fetal calf serum and incubated at 37° C. for 48 hours. At the same time, distilled water and an Actinomycin D solution (10 μg/ml) which was known to have an apoptosis inducing activity were added to prepare control samples. Formation of apoptic bodies, contraction of cells and aggregation of nuclei were observed by naked eye under a microscope whereby the living cell numbers were counted. When such phenomena were observed and a reduction in living cell numbers was recognized, it was decided that an apoptosis inducing activity was positive.
# Each of the concentrated extracts of Lyophyllum ulmarium was diluted with a 75% or 50% aqueous solution of ethanol. The diluted solution was assayed by an MTT method mentioned in Example 7. […] Thus, it was confirmed that, under the conditions of extracting with a 75% aqueous solution of ethanol and a 50% aqueous solution of ethanol, substances which are active for suppressing the growth of cancer cells were extracted. Further, an apoptosis inducing activity was measured using those concentrated extracts of Lyophyllum ulmarium. Thus, 25 μl of each of the above-mentioned concentrated extracts was used as a sample, ethanol was evaporated therefrom, the residue was added to 2.5×10^5 HL-60 cells/4.5 ml which were incubated in an RPMI 1640 medium containing 10% of fetal calf serum and incubation was conducted at 37° C. for 48 hours. At the same time, control samples were prepared by adding distilled water and an Actinomycin D solution (10 μg/ml) which was known to have an apoptosis inducing activity. Formation of apoptic bodies, contraction of cells and aggregation of nuclei were observed by naked eye under an optical microscope and the numbers of living cells were counted. When such a phenomenon was observed and a reduction in living cell numbers was noted, the sample was judged to have an apoptosis inducing activity.
# [1] = 37° C., 48 hours, apoptic bodies, contraction of cells, aggregation of nuclei and reduction in living cell numbers
Molecule,"activity of suppressing the growth of cancer cells (37° C., 48 hours)",apoptosis inducing activity [1],apoptosis inducing activity (Actinomycin D solution (10 μg/ml) added as control sample)
monogalactosyl diglyceride,confirmed,strong apoptosis inducing action,–
digalactosyl diglyceride,confirmed,strong apoptosis inducing action,–
Monogalactosyl diglyceride,confirmed,strong apoptosis inducing action,–
"Cc1c2oc3c(C)ccc(C(=O)N[C@@H]4C(=O)N[C@H](C(C)C)C(=O)N5CCC[C@H]5C(=O)N(C)CC(=O)N(C)[C@@H](C(C)C)C(=O)O[C@@H]4C)c3nc-2c(C(=O)N[C@@H]2C(=O)N[C@H](C(C)C)C(=O)N3CCC[C@H]3C(=O)N(C)CC(=O)N(C)[C@@H](C(C)C)C(=O)O[C@@H]2C)c(N)c1=O [Actinomycin D, reference compound] (I: T[dV]P[Sar][NMeV] / II: T[dV]P[Sar][NMeV]; ester I:1-I:C, II:1-II:C; linker I:N-II:N via Actinocin(9to1))",–,–,apoptosis inducing activity was confirmed
